Measured values: BindingDB's records for doi:10.1016/j.ejmech.2018.12.019 (Rheinische Friedrich-Wilhelms-University of Bonn, 2019)

Key:
[1] = biological target: ATP-dependent translocase ABCB1 (Homo sapiens, UniProt P08183); test: Inhibition of ABCB1 in human A2780/ADR cells assessed as potentiation of daunorubicin-induced cytotoxicity measured after 72 hrs by MTT assay
[2] = Inhibition of ABCG2 (unknown origin) expressed in MDCK2 cells co-expressing BCRP (unknown origin) assessed as potentiation of SN-38-induced cytotoxicity measured after 72 hrs by MTT assay
[3] = Inhibition of ABCB1 in human A2780/ADR cells assessed as potentiation of daunorubicin-induced cytotoxicity measured after 72 hrs by MTT assay
[4] = biological target: T1, Broad substrate specificity ATP-binding cassette transporter ABCG2 (Homo sapiens, UniProt Q9UNQ0); test: Inhibition of ABCG2 (unknown origin) expressed in MDCK2 cells co-expressing BCRP (unknown origin) assessed as potentiation of SN-38-induced cytotoxicity measured after 72 hrs by MTT assay
T1 sequence (Q9UNQ0 whole entry): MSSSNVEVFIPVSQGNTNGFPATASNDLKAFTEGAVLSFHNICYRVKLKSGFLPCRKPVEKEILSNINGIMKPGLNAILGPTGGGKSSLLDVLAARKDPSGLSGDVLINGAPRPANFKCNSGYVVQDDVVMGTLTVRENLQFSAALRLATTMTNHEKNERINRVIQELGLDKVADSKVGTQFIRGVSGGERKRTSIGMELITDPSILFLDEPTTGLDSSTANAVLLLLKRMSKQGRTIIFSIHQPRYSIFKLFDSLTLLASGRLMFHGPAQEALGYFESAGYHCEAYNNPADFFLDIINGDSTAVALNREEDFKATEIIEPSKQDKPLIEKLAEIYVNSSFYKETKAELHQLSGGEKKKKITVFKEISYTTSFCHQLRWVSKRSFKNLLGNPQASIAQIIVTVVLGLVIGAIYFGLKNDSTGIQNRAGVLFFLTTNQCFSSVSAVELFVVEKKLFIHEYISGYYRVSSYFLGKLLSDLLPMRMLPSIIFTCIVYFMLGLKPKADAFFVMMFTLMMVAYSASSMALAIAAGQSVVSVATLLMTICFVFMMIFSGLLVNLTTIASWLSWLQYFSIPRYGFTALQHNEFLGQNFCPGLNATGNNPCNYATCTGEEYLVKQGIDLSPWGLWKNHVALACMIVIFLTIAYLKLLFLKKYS

Chain of ATP-dependent translocase ABCB1 (P08183 whole entry): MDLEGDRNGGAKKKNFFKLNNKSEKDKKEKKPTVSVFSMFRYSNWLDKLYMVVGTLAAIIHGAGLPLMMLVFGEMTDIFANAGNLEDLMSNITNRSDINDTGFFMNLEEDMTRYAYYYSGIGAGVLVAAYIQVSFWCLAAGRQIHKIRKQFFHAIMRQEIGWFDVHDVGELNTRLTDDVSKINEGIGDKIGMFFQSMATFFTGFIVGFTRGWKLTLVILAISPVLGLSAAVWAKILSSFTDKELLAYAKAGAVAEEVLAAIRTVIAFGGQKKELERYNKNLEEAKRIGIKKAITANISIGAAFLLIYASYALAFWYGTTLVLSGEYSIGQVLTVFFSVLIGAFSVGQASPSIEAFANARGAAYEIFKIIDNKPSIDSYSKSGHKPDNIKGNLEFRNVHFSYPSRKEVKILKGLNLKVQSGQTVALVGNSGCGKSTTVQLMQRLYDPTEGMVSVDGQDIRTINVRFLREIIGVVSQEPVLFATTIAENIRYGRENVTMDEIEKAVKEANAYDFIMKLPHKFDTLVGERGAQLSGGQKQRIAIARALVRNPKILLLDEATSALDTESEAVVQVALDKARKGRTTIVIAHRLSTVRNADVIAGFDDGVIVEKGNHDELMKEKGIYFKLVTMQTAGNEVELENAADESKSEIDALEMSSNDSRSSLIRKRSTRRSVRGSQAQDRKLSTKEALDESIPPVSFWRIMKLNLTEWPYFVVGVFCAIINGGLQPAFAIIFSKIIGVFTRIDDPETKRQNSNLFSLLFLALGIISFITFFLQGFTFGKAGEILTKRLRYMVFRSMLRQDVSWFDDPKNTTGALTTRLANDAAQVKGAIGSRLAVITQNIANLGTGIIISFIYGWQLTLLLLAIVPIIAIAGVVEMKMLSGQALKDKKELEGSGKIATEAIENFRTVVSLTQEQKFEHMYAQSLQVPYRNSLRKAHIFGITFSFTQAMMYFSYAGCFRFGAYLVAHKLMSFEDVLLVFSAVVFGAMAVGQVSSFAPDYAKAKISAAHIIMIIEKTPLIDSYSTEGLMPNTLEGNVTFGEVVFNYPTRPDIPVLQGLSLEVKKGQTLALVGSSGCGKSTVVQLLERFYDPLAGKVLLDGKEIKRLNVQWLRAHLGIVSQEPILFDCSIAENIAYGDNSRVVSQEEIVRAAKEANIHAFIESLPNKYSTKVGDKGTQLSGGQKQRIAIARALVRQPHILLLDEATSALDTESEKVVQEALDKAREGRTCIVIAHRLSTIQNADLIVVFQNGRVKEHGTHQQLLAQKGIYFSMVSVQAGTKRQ

SMILES: Cc1cc(Nc2ncc(Cl)c(Nc3ccccc3S(=O)(=O)C(C)C)n2)c(OC(C)C)cc1C1CCNCC1
- EC50 [1]: 89 nM

SMILES: O=C(COc1cccc(C(=O)/C=C/c2ccccc2)c1)Nc1ccc2c(c1)COC2=O
- EC50 [2]: 1170 nM

SMILES: COc1ccc(-c2c(OCC(=O)Nc3cccc4ccccc34)oc3ccccc3c2=O)cc1OC
- EC50 [2]: 446 nM
- EC50 [3]: 3120 nM

SMILES: Cc1ccc(-c2c(OCC(=O)Nc3cccc4ccccc34)oc3ccccc3c2=O)cc1
- EC50 [3]: 5010 nM

SMILES: CCCOc1ccc(/C=C/C(=O)c2ccc(O)cc2)cc1
- EC50 [2]: 1250 nM

SMILES: COc1cccc(/C=C/C(=O)c2ccc(OCC(=O)Nc3ccc(OC)c(OC)c3)cc2)c1
- EC50 [2]: 1390 nM

SMILES: O=C(COc1c(-c2ccccc2Cl)oc2ccccc2c1=O)Nc1ccc2c(c1)COC2=O
- EC50 [2]: 1220 nM
- EC50 [3]: 9900 nM

SMILES: COc1cc(C(=O)/C=C/c2cc(OC)c(OC)c(OC)c2)ccc1O
- EC50 [2]: 512 nM

SMILES: COc1ccc(-c2c(OCC(=O)Nc3cccc4ccccc34)oc3ccccc3c2=O)cc1
- EC50 [2]: 793 nM

SMILES: COc1ccc(NC(=O)COc2ccc(C(=O)/C=C/c3cc(OC)c(OC)c(OC)c3)cc2)cc1OC
- EC50 [2]: 107 nM

SMILES: COc1cc(/C=C/C(=O)c2ccc(OCC(=O)NCc3ccc4c(c3)OCO4)cc2)cc(OC)c1OC
- EC50 [2]: 989 nM

SMILES: COc1ccc(NC(=O)COc2ccc(C(=O)/C=C/c3c(F)cccc3F)cc2)cc1OC
- EC50 [2]: 448 nM

SMILES: CN1CCN(c2cccc(Nc3nc4c(-c5ccc(S(C)(=O)=O)cc5)cccn4n3)c2)CC1
- EC50 [1]: 202 nM

SMILES: Cc1ccc(-n2nc(C(C)(C)C)cc2NC(=O)Nc2ccc(OCCN3CCOCC3)c3ccccc23)cc1 [1-[5-tert-butyl-2-(p-tolyl)pyrazol-3-yl]-3-[4-(2-morpholinoethoxy)-1-naphthyl]urea]
- EC50 [1]: 524 nM

SMILES: C[C@]1(O)C[C@@H](c2nc(-c3ccc4ccc(-c5ccccc5)nc4c3)c3c(N)nccn32)C1 [(1s,3s)-3-(8-amino-1-(2-phenylquinolin-7-yl)imidazo[1,5-a]pyrazin-3-yl)-1-methylcyclobutanol]
- EC50 [4]: 104 nM
- EC50 [3]: 2090 nM

SMILES: COC(=O)c1ccc2c(c1)NC(=O)/C2=C(\Nc1ccc(N(C)C(=O)CN2CCN(C)CC2)cc1)c1ccccc1 [BIBF-1120]
- EC50 [1]: 276 nM

SMILES: CC(=O)Nc1cccc(-n2c(=O)n(C3CC3)c(=O)c3c(Nc4ccc(I)cc4F)n(C)c(=O)c(C)c32)c1 [CHEBI:75998]
- EC50 [1]: 247 nM

SMILES: COc1cc2ncnc(Nc3ccc(O)c(Br)c3)c2cc1OC [WHI-P154]
- EC50 [4]: 189 nM
- EC50 [3]: 3080 nM
